Data from US20210115104A1, “AMYLIN ANALOGUES” (Zealand Pharma A/S, priority 2015, published 2021).
*1 amine or outer side, *2 acyl side, *3 side chain or, on linkers, in order; H or OH if unused. Where a SMILES comes first, the peptide text is derived from it. Bridges are numbered along the chain shown (N, C = ends). [ ]: non-standard residue; d: D form. The star is where a group is joined. C20 diacid = O=C(O)CCCCCCCCCCCCCCCCCCC(=O)*; γGlu = O=C(O)[C@H](CCC(=O)[*:2])N[*:1]; Hyp = O=C(O)[C@@H]1C[C@@H](O)CN1; NMeI = CC[C@H](C)[C@H](NC)C(=O)O; Sar = CNCC(=O)O

Tests used:
[1] = molecular target: T1, human calcitonin receptor (hCTR2) (Homo sapiens, UniProt P30988); test: hCTR2 cAMP assay (AlphaScreen) in COS7 cells; assay type: cell-based; details: cAMP induction, COS7 cells expressing hCTR2; Table 1; read-out: hCTR2 EC50
T1 construct: expressed in transfected cells
T1 sequence (P30988 25-474): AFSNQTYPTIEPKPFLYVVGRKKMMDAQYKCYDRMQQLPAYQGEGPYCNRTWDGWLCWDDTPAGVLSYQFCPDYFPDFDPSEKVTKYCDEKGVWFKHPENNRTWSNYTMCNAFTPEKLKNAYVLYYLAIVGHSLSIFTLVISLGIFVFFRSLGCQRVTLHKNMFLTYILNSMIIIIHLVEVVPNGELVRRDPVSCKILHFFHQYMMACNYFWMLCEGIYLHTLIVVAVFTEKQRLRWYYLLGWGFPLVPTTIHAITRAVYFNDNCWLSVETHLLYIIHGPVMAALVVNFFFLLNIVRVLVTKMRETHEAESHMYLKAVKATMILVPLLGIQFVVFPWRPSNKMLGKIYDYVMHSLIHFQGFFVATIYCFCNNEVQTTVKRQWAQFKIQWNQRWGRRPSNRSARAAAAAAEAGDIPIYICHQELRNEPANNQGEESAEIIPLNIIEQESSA
Summary of the method: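 Stable hCTR2 clone in RAMP-naïve COS7 cells stimulated 15 min at 37 °C with increasing peptide concentrations in Tyrode buffer pH 7.4 containing IBMX and 0.1% casein. cAMP in lysates measured by AlphaScreen; EC50 from 4-parameter logistic fit.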

[2] = Pharmacokinetic (PK) profiling in rats; assay type: in vivo, rat; parameters: CI/F (apparent clearance values): unit not given here; details: Sprague Dawley male rats, single sc 30 nmol/kg
Summary of the method: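 Male Sprague Dawley rats received a single sc dose of 30 nmol/kg in mannitol-containing histidine buffer (pH 7.0), with tail-vein sampling before dosing and at 24–168 hours. Plasma was ethanol-precipitated and assayed by LC-MS/MS. Non-compartmental analysis of mean concentrations gave t1/2 as ln(2)/λz and CL/F as dose/AUCinf.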

[3] = system: Sprague Dawley rats; test: Oral glucose tolerance test (OGTT) in rats; assay type: in vivo, rat; details: fasted rats, 30 nmol/kg sc 16 hours before oral glucose bolus 2 g/kg
Experimental: Male Sprague Dawley rats [Crl:CD(SD), weight range 260-280 g upon arrival] were housed in groups of 2 (n=2) or 3 (n=3). The animals were maintained on a 12 h/12 h light/dark cycle. Animals had access ad libitum to a standard chow diet and tap water (domestic quality tap water) during the initial one week acclimatization period.
Fasted rats (fasted for 7 hours) were employed in the test. Rats had previously been randomized into two groups, designated test group and control group, respectively. The total number of animals per group was 10 (n=10).
A single subcutaneous injection of either vehicle (control group; vehicle: 50 mM histidine buffer, pH 7, with 200 mM mannitol) or Compound 7 in vehicle [test group; dose 30 nmol/kg body weight (2 ml/kg)] was subsequently administered to each animal. All rats then received an oral glucose bolus (2 g/kg) 16 hours after vehicle or compound administration. Blood glucose levels in tail blood samples taken 20 min. before glucose administration (time zero, baseline) and then 15 min., 30 min., 60 min., 90 min., 120 min. and 180 min after glucose administration were determined using a glucometer (GlucoSmart Swing™; MSP Bodmann GmbH, Germany).
The data are presented as mean±S.E.M. The two-sided unpaired Student t-test was used for statistical comparison of the test group and the control group.

Row | Compound | EC50 [1] | CI/F (apparent clearance values) [2] | half-life ([2]; rat, plasma, read-out: Plasma terminal elimination half-life t1/2 (converted)) | Glucose AUC, t = 15-180 min.; mean ± S.E.M. [3]
1 | CC[C@H](C)[C@@H](C(=O)N[C@@H](CC(C)C)C(=O)N[C@@H](CO)C(=O)N[C@@H](CO)C(=O)N[C@H](C(=O)N[C@@H](CCC(=O)O)C(=O)N[C@H](C(=O)NCC(=O)N[C@@H](CO)C(=O)N[C@@H](CO)C(=O)N[C@H](C(=O)N1CCC[C@H]1C(N)=O)[C@@H](C)O)C(C)C)[C@@H](C)O)N(C)C(=O)[C@H](C)NC(=O)CN(C)C(=O)[C@H](Cc1ccccc1)NC(=O)[C@H](CO)NC(=O)[C@H](CO)NC(=O)[C@H](CCCNC(=N)N)NC(=O)[C@H](CCC(=O)O)NC(=O)[C@H](CC(C)C)NC(=O)[C@H](Cc1ccccc1)NC(=O)[C@H](Cc1c[nH]cn1)NC(=O)[C@H](C)NC(=O)[C@H](CC(C)C)NC(=O)[C@H](CCCNC(=N)N)NC(=O)[C@H](CCC(=O)O)NC(=O)[C@@H](NC(=O)[C@H](C)NC(=O)[C@@H]1CSSC[C@H](NC(=O)[C@H](CCCNC(=N)N)NC(=O)CC[C@H](NC(=O)CCCCCCCCCCCCCCCCCCC(=O)O)C(=O)O)C(=O)NCC(=O)N[C@@H]([C@@H](C)O)C(=O)N[C@@H](C)C(=O)N[C@@H]([C@@H](C)O)C(=O)N1)[C@@H](C)O [Compound 36, [19CD]-isoGlu-R-C( )-GTAT-C( )-ATERLAHFLERSSF-Gly(Me)-A-Ile(Me)-LSSTEVGSSTP-NH2] ({C20 diacid-γGlu}-RCGTATCATERLAHFLERSSF[Sar]A[NMeI]LSSTEVGSSTP-NH2; disulfide 2-7) | 0.21 nM | 0.0117 | 25.7 h | 
2 | CC[C@H](C)[C@@H](C(=O)N[C@@H](CC(C)C)C(=O)N[C@@H](CO)C(=O)N[C@@H](CO)C(=O)N[C@H](C(=O)N[C@@H](CCC(=O)O)C(=O)N[C@H](C(=O)NCC(=O)N[C@@H](CO)C(=O)N[C@@H](CC(N)=O)C(=O)N[C@H](C(=O)N1C[C@H](O)C[C@H]1C(N)=O)[C@@H](C)O)C(C)C)[C@@H](C)O)N(C)C(=O)[C@H](C)NC(=O)CN(C)C(=O)[C@H](Cc1ccccc1)NC(=O)[C@H](CO)NC(=O)[C@H](CO)NC(=O)[C@H](CCCNC(=N)N)NC(=O)[C@H](CC(N)=O)NC(=O)[C@H](CC(C)C)NC(=O)[C@H](Cc1ccccc1)NC(=O)[C@H](Cc1c[nH]cn1)NC(=O)[C@H](C)NC(=O)[C@H](CC(C)C)NC(=O)[C@H](CCCNC(=N)N)NC(=O)[C@H](CCC(=O)O)NC(=O)[C@@H](NC(=O)[C@H](C)NC(=O)[C@@H]1CSSC[C@H](NC(=O)[C@H](CCCNC(=N)N)NC(=O)CC[C@H](NC(=O)CCCCCCCCCCCCCCCCCCC(=O)O)C(=O)O)C(=O)NCC(=O)N[C@@H]([C@@H](C)O)C(=O)N[C@@H](C)C(=O)N[C@@H]([C@@H](C)O)C(=O)N1)[C@@H](C)O [Compound 6, [19CD]-isoGlu-R-C( )-GTAT-C( )-ATERLAHFLNRSSF-Gly(Me)-A-Ile(Me)-LSSTEVGSNT-Hyp-NH2] ({C20 diacid-γGlu}-RCGTATCATERLAHFLNRSSF[Sar]A[NMeI]LSSTEVGSNT[Hyp]-NH2; disulfide 2-7) | 0.077 nM | 0.0069 |  | 
3 | CC[C@H](C)[C@@H](C(=O)N[C@@H](CC(C)C)C(=O)N[C@@H](CO)C(=O)N[C@@H](CO)C(=O)N[C@H](C(=O)N[C@@H](CCC(=O)O)C(=O)N[C@H](C(=O)NCC(=O)N[C@@H](CO)C(=O)N[C@@H](CC(N)=O)C(=O)N[C@H](C(=O)N1C[C@H](O)C[C@H]1C(N)=O)[C@@H](C)O)C(C)C)[C@@H](C)O)N(C)C(=O)[C@H](C)NC(=O)CN(C)C(=O)[C@H](Cc1ccccc1)NC(=O)[C@H](CO)NC(=O)[C@H](CO)NC(=O)[C@H](CCCNC(=N)N)NC(=O)[C@H](CCC(N)=O)NC(=O)[C@H](CC(C)C)NC(=O)[C@H](Cc1ccccc1)NC(=O)[C@H](Cc1c[nH]cn1)NC(=O)[C@H](C)NC(=O)[C@H](CC(C)C)NC(=O)[C@H](CCCNC(=N)N)NC(=O)[C@H](CCC(=O)O)NC(=O)[C@@H](NC(=O)[C@H](C)NC(=O)[C@@H]1CSSC[C@H](NC(=O)[C@H](CCCNC(=N)N)NC(=O)CC[C@H](NC(=O)CCCCCCCCCCCCCCCCCCC(=O)O)C(=O)O)C(=O)NCC(=O)N[C@@H]([C@@H](C)O)C(=O)N[C@@H](C)C(=O)N[C@@H]([C@@H](C)O)C(=O)N1)[C@@H](C)O [Compound 7, [19CD]-isoGlu-R-C( )-GTAT-C( )-ATERLAHFLQRSSF-Gly(Me)-A-Ile(Me)-LSSTEVGSNT-Hyp-NH2] ({C20 diacid-γGlu}-RCGTATCATERLAHFLQRSSF[Sar]A[NMeI]LSSTEVGSNT[Hyp]-NH2; disulfide 2-7) | 0.087 nM | 0.0087 |  | 122 ± 29 mmol·min/L

Further compounds by falling EC50 [1], results first:

Row | EC50 [1] | CI/F (apparent clearance values) [2] | half-life ([2]; rat, plasma, read-out: Plasma terminal elimination half-life t1/2 (converted)) | Compound | Glucose AUC, t = 15-180 min.; mean ± S.E.M. [3]
4 | 0.11 nM | 0.0128 |  | CC[C@H](C)[C@@H](C(=O)N[C@@H](CC(C)C)C(=O)N[C@@H](CO)C(=O)N[C@@H](CO)C(=O)N[C@H](C(=O)N[C@@H](CCC(=O)O)C(=O)N[C@H](C(=O)NCC(=O)N[C@@H](CO)C(=O)N[C@@H](CO)C(=O)N[C@H](C(=O)N1C[C@H](O)C[C@H]1C(N)=O)[C@@H](C)O)C(C)C)[C@@H](C)O)N(C)C(=O)[C@H](C)NC(=O)CN(C)C(=O)[C@H](Cc1ccccc1)NC(=O)[C@H](CO)NC(=O)[C@H](CO)NC(=O)[C@H](CCCNC(=N)N)NC(=O)[C@H](CCC(N)=O)NC(=O)[C@H](CC(C)C)NC(=O)[C@H](Cc1ccccc1)NC(=O)[C@H](Cc1c[nH]cn1)NC(=O)[C@H](C)NC(=O)[C@H](CC(C)C)NC(=O)[C@H](CCCNC(=N)N)NC(=O)[C@H](CCC(=O)O)NC(=O)[C@@H](NC(=O)[C@H](C)NC(=O)[C@@H]1CSSC[C@H](NC(=O)[C@H](CCCNC(=N)N)NC(=O)CC[C@H](NC(=O)CCCCCCCCCCCCCCCCCCC(=O)O)C(=O)O)C(=O)NCC(=O)N[C@@H]([C@@H](C)O)C(=O)N[C@@H](C)C(=O)N[C@@H]([C@@H](C)O)C(=O)N1)[C@@H](C)O [Compound 28, [19CD]-isoGlu-R-C( )-GTAT-C( )-ATERLAHFLQRSSF-Gly(Me)-A-Ile(Me)-LSSTEVGSST-Hyp-NH2] ({C20 diacid-γGlu}-RCGTATCATERLAHFLQRSSF[Sar]A[NMeI]LSSTEVGSST[Hyp]-NH2; disulfide 2-7) | 
5 | 0.044 nM | 0.0116 |  | CC[C@H](C)[C@@H](C(=O)N[C@@H](CC(C)C)C(=O)N[C@@H](CO)C(=O)N[C@@H](CO)C(=O)N[C@H](C(=O)N[C@@H](CCC(=O)O)C(=O)N[C@H](C(=O)NCC(=O)N[C@@H](CO)C(=O)N[C@@H](CC(N)=O)C(=O)N[C@H](C(=O)N1CCC[C@H]1C(N)=O)[C@@H](C)O)C(C)C)[C@@H](C)O)N(C)C(=O)[C@H](C)NC(=O)CN(C)C(=O)[C@H](Cc1ccccc1)NC(=O)[C@H](CO)NC(=O)[C@H](CO)NC(=O)[C@H](CCCNC(=N)N)NC(=O)[C@H](Cc1c[nH]cn1)NC(=O)[C@H](CC(C)C)NC(=O)[C@H](Cc1ccccc1)NC(=O)[C@H](Cc1c[nH]cn1)NC(=O)[C@H](C)NC(=O)[C@H](CC(C)C)NC(=O)[C@H](CCCNC(=N)N)NC(=O)[C@H](CCC(=O)O)NC(=O)[C@@H](NC(=O)[C@H](C)NC(=O)[C@@H]1CSSC[C@H](NC(=O)[C@H](CCCNC(=N)N)NC(=O)CC[C@H](NC(=O)CCCCCCCCCCCCCCCCCCC(=O)O)C(=O)O)C(=O)NCC(=O)N[C@@H]([C@@H](C)O)C(=O)N[C@@H](C)C(=O)N[C@@H]([C@@H](C)O)C(=O)N1)[C@@H](C)O [Compound 15, [19CD]-isoGlu-R-C( )-GTAT-C( )-ATERLAHFLHRSSF-Gly(Me)-A-Ile(Me)-LSSTEVGSNTP-NH2] ({C20 diacid-γGlu}-RCGTATCATERLAHFLHRSSF[Sar]A[NMeI]LSSTEVGSNTP-NH2; disulfide 2-7) | 
